# Laboratory results from patent US11512083B2, “Compounds and methods for the enhanced degradation of targeted proteins” (Arvinas Operations, Inc., priority 2015, dated 2022).
# pIC50: −log10 of the molar value.
# Columns and labels:
# Androgen Receptor = experiment: Androgen receptor ELISA assay (AR degradation) in LNCaP and/or VCaP cells; format: cell-based; settings: AR PROTACs; 24 h incubation
# Description: Compounds have been evaluated in this assay in LNCaP and/or VCaP cells utilizing similar protocols. The protocols used with VCaP cells are described below. The androgen receptor ELISA assay was performed using PathScan AR ELISA (Cell Signaling Catalog #128501 according to the following assay steps:
# VCaP cells are seeded at 30,000 cells/well at a volume of 200 μL/well in VCaP assay medium [Phenol red free RPMI (Gibco Cat #11835-030); 5% Charcoal Stripped (Dextran treated) FBS (Omega Scientific, Cat #FB-04); Pen/Strep Life Technologies (Gibco Cat #: 10378-016); 0. 1 nM R1881 (Sigma, Cat #R0908) is added upon the start of the assay, not during initial plating of the cells) in Corning 3904 plates. The cells are grown for a minimum of 3 days.
# (2)(i) Make 10× stock plate in media; (ii) transfer 2.5 μL of the 1000× stock to a new 10× stock plate (use 12 channel pipet, start at A (DMSO control) work thru H. When 247.5 μL of media is added to this plate, it will serve as a 10× stock; (iii) make media+1 nM R1881 for making 10× stock plate; (iv) add 247.5 μL of media with 1 nM R1881 to each well of the 10× stock plate, mix.
# Then 22 μL of 10× stock is added to cells and incubated for 24 h. 1× Cell Signaling Cell lysis buffer is made (Catalogue #9803; comes with the kit)—prepare for 50 μL/well. Keep on ice. Media is aspirated, and 50 μL 1× cell lysis buffer/well is added. The cells are placed on ice for 10 minutes. The solution is mixed and transferred to PCR plate, and centrifuged at 4 C for 10 minutes at 4000 rpm. […]
# Add 100 μL/well AR Elisa; cover and shake, 37 C for 2 hrs; dump, tap, wash 4× 200 μL ELISA wash buffer; add 100 μL/well mouse AR detection Ab; cover and shake, 37 C for 1 hr; dump, tap, wash 4× 200 μL ELISA wash buffer; add 100 μL/well anti-mouse—HRP conjugated Ab (comes with the kit); cover and shake, 37 C for 30 min; allow TMB reagent to come to RT; dump, tap, wash 4× 200 μL Elisa wash buffer; tap; add 100 μL TMB, shake 5 min—while watching color. […] Add 100 μL Stop solution; shake and read at 450 nm. […]
# VHL = VHL (Homo sapiens (Human), UniProt P40337); experiment: VHL fluorescence polarization (FP) competition assay; format: binding
# BRD4 = BRD4 (Homo sapiens (Human), UniProt O60885); experiment: BRD4 c-myc ELISA assay in 22RV-1 cells; format: cell-based; settings: 18 hrs, 300 nM-0.3 nM
# Description: 22RV-1 cells were seeded at 30,000 cells/well at a volume of 75 μL/well in RPMI+10% FBS media in 96-well plates and grown overnight at 37 C. Cells were dosed with compounds at 4× concentration diluted in 0.4% DMSO; compounds were serially diluted 1:3 for 8-point dose curve. 25 ul of compound was added to cells for a final concentration starting at 300 nM-0.3 nM in 0.1% DMSO and incubated for 18 hrs. Media was aspirated, cells washed 1× with PBS and aspirated. Cells were lysed in 50 ul RIPA buffer (50 mM Tris pH8, 150 mM NaCl, 1% Tx-100, 0.1% SDS, 0.5% sodium deoxycholate) supplemented with protease and phosphatase inhibitors. Plates were incubated on ice for 15 minutes then centrifuged at 4° C. for 10 min at 4000 rpm. Added 50 ul of cleared lysate from 96-well assay plate into 96-well c-myc ELISA plate (Novex, Life Technologies Catalog #KH02041). […] The rest of the assay was performed following the protocol from the c-myc ELISA kit. Data was analyzed and plotted using GraphPad Prism software.
pIC50 (VHL; 1% in DMSO),cMyc Imax (BRD4),SMILES,also measured
–,–,Cc1ncsc1-c1ccc(CNC(=O)[C@@H]2C[C@@H](O)CN2C(=O)C(C(C)C)n2cc(OC3CCN(c4ccc(-c5ccc(N6C(=S)N(c7ccc(C#N)c(C(F)(F)F)c7)C(=O)C6(C)C)cc5)cn4)CC3)cn2)cc1 (stereo partly shown),Dmax (highest percentage of Androgen Receptor degradation observed) (Androgen Receptor): ++ (26%≤Dmax≤50%)
4.67,–,"Cc1ncsc1-c1ccc(CNC(=S)[C@@H]2C[C@@H](O)CN2C(=O)[C@H](C(C)C)N2Cc3ccccc3C2=O)cc1 [Example 110, (2S,4R)-4-hydroxy-1-((S)-3-methyl-2-(1-oxoisoindolin-2-yl)butanoyl)-N-(4-(4-methylthiazol-5-yl)benzyl)pyrrolidine-2-carbothioamide]",–
5.69,–,"Cc1ncsc1-c1ccc(CNC(=O)[C@@H]2C[C@@H](O)CN2C(=O)[C@@H](NC(=O)c2ccccc2C#N)C(C)(C)C)cc1 [Example 70, (2S,4R)-1-((S)-2-(2-cyanobenzamido)-3,3-dimethylbutanoyl)-4-hydroxy-N-(4-(4-methylthiazol-5-yl)benzyl)pyrrolidine-2-carboxamide]",pIC50 (VHL; 10% in DMSO): 5.92
–,++++ (71%≤Imax),Cc1ncsc1-c1ccc(CNC(=O)[C@@H]2C[C@@H](O)CN2C(=O)[C@H](C(C)C)n2cc(-c3cccc(O[C@H](C)CNC(=O)C[C@@H]4N=C(c5ccc(Cl)cc5)c5c(sc(C)c5C)-n5c(C)nnc54)c3)cn2)cc1,–
< 4.00,–,"Cc1ncsc1-c1ccc(CNC(=O)C2(C)C[C@@H](O)CN2C(=O)[C@H](C(C)C)N2Cc3ccccc3C2=O)cc1 (single isomer, unassigned) [Example 128]",–
–,++++ (71%≤Imax),Cc1ncsc1-c1ccc([C@H](C)NC(=O)[C@@H]2C[C@@H](O)CN2C(=O)[C@@H](n2cc(-c3ccnc(O[C@H]4C[C@@H](NC(=O)C[C@@H]5N=C(c6ccc(Cl)cc6)c6c(sc(C)c6C)-n6c(C)nnc65)C4)c3)cn2)C(C)(C)C)cc1,–
–,++++ (71%≤Imax),Cc1ncsc1-c1ccc([C@H](C)NC(=O)[C@@H]2C[C@@H](O)CN2C(=O)[C@H](C(C)C)n2cc(-c3ccnc(N4CC[C@H](NC(=O)C[C@@H]5N=C(c6ccc(Cl)cc6)c6c(sc(C)c6C)-n6c(C)nnc65)C4)c3)cn2)cc1,–
5.20,–,"CSC[C@H](NC(=O)CCC(C)C)C(=O)N1C[C@H](O)C[C@H]1C(=O)NCc1ccc(-c2scnc2C)cc1 [Example 22, (2S,4R)-4-hydroxy-1-((R)-2-(4-methylpentanamido)-3-(methylthio)propanoyl)-N-(4-(4-methylthiazol-5-yl)benzyl)pyrrolidine-2-carboxamide]",pIC50 (VHL; 10% in DMSO): 5.08
–,++++ (71%≤Imax),Cc1ncsc1-c1ccc([C@H](C)NC(=O)[C@@H]2C[C@@H](O)CN2C(=O)[C@H](C(C)C)n2cc(-c3ccnc(O[C@H]4C[C@H](NC(=O)C[C@@H]5N=C(c6ccc(Cl)cc6)c6c(sc(C)c6C)-n6c(C)nnc65)C4)c3)cn2)cc1,–
–,–,Cc1ncsc1-c1ccc([C@H](C)NC(=O)[C@@H]2C[C@@H](O)CN2C(=O)[C@H](C(C)C)n2cc(OCCCOCCC(O)CCOc3ccc(N4C(=S)N(c5ccc(C#N)c(C(F)(F)F)c5)C(=O)C4(C)C)cc3)cn2)cc1 (stereo partly shown),Dmax (highest percentage of Androgen Receptor degradation observed) (Androgen Receptor): +++ (51%≤Dmax≤70%)
4.71,–,"Cc1ncsc1-c1ccc(CNC(=O)C2(C)C[C@@H](O)CN2C(=O)[C@H](C(C)C)N2Cc3ccccc3C2=O)cc1 (single isomer, unassigned) [Example 129]",–
–,–,Cc1ncsc1-c1ccc([C@H](C)NC(=O)[C@@H]2C[C@@H](O)CN2C(=O)[C@H](C(C)C)n2cc(-c3ccnc(N4CC[C@@H](Nc5ccc(C(=O)N[C@H]6C(C)(C)[C@H](Oc7ccc(C#N)c(Cl)c7)C6(C)C)cc5)C4)c3)cn2)cc1,Dmax (highest percentage of Androgen Receptor degradation observed) (Androgen Receptor): ++ (26%≤Dmax≤50%)
4.86,–,"Cc1ncsc1-c1ccc(CNC(=O)[C@@H]2C[C@@H](O)CN2C(=O)[C@@H](NC(=O)C2CCN(C)CC2)C(C)(C)C)cc1 [Example 75, N—((S)-1-((2S,4R)-4-hydroxy-2-(4-(4-methylthiazol-5-yl)benzylcarbamoyl)pyrrolidin-1-yl)-3,3-dimethyl-1-oxobutan-2-yl)-1-methylpiperidine-4-carboxamide]",pIC50 (VHL; 10% in DMSO): 5.03
